Test results published in patent publication US8586007B2, “Co-polymer stabilizers for hydrofluoroalkane dispersions” (Wayne State University, priority 2007, dated 2013).
Each block holds one compound with its values, some of them ahead of it.

How the values were obtained:
[1] = Colloidal probe microscopy (CPM): adhesion force (Fad) in liquid HPFP in the presence of surfactants and/or cosolvents; type: physicochemical; conditions: 298 K
Source text: Preparation and Characterization of the Drug-Modified AFM Cantilever (Colloidal Probe). Single salbutamol crystals were glued onto silicon nitride contact-mode cantilevers (NP-20) with the help of an AFM (Pico LE, Molecular Imaging). In brief, the cantilever was first positioned above a tiny drop of epoxy (Epotek 377). The AFM cantilever was then slowly approached toward the epoxy. A tiny amount of it was then carefully transferred onto the AFM tip. A similar procedure was used to attach the drug particle to the AFM tip containing the epoxy. The particle-modified AFM tip was then kept at room temperature for 24 h to allow the complete curing of the epoxy. SEM images of the drug-modified cantilevers were obtained after the adhesion force measurements to verify the integrity and quality of the probe. The spring constant of the drug-modified cantilevers was determined using a module attached to the AFM and the MI Thermal K 1.02 software. Preparation and Characterization of the Drug Crystal Substrate. Salbutamol was first dissolved in ethanol to saturation. The solution was then transferred onto a cover glass previously treated with piranha solution (7:3 v/v H2SO4/H2O2). The system was kept inside a scaled Petri dish. The crystallization process of salbutamol was induced by the controlled evaporation of ethanol. Optical microscopy was used to observe the crystal morphology. The surface topography of the salbutamol crystal was examined by AFM under tapping mode, with a silicon cantilever (BS-Multi 75). Colloidal Probe Microscopy (CPM). The force of adhesion (Fad) between the salbutamol-modified cantilever and a smooth salbutamol crystal substrate was determined by CPM, at 298 K. A fluid cell was used to perform the experiments in liquid HPFP. The procedure adopted here is similar to that used to investigate the effect of other excipients on drug-drug interactions. FIG. 2a is the schematic diagram of a typical force curve obtained during the CPM measurements. The Fad is determined as the product of the spring constant (k) of the drug-modified AFM cantilever and the maximum cantilever deflection (x) during the retraction stage of the force measurement; […]; as schematically shown in FIG. 2a. Several contact points, randomly distributed on the crystal surfaces over a 9 μm×9 μm area, were selected for the measurements. At each contact point, 25 force-distance curves were measured. The tip was moved toward and away from the substrate in a range of 2000 nm and a sweep duration of 2 s. The histograms of the measured Fad were fit to a Gaussian distribution, from which an average Fad and deviation were obtained. The same drug probe was used throughout the measurements to guarantee a constant contact area. Great care was taken to guarantee the integrity of the drug probe. Since the solubility of salbutamol in HPFP is negligible, before each new adhesion force measurement, the drug probe and drug crystal substrate were thoroughly rinsed with HPFP, followed by an Fad test in pure HPFP. […] A second set of completely independent measurements (new probe and crystal substrate) were obtained to assess the reproducibility of the reported trend in Fad.

[2] = Solubility in propellant / solvent; type: physicochemical

Fad probe 1 ([1]; no surfactant, cosolvent ethanol 7% (v/v) alone, probe 1): 6.31 ± 0.47 nN | Fad probe 2 ([1]; no surfactant, cosolvent ethanol 7% (v/v) alone): 5.01 ± 0.26 nN
Compound: CCO [Ethanol]

Fad probe 1 ([1]; surfactant 1.0 mM with cosolvent ethanol 7% (v/v), probe 1): 1.54 ± 0.35 nN | Fad probe 1 ([1]; surfactant 1.0 mM with cosolvent ethanol 7% (v/v), probe 1, listed as oleic acid): 1.54 nN | Fad probe 2 ([1]; surfactant 1.0 mM with cosolvent ethanol 7% (v/v)): 1.64 ± 0.21 nN
Compound: CCCCCCCC/C=C\CCCCCCCC(=O)O [Oleic acid]

Solubility in HPFP ([2]; HPFP): negligible | Solubility in ethanol ([2]; ethanol): appreciable solubility
Compound: CC(C)(C)NCC(O)c1ccc(O)c(CO)c1 (stereo not shown) [salbutamol]
